The nature of data set [1]: Stability of 2-octynoHA in solution (UHPLC-UV). In kind it is physicochemical. As for the experimental part:
Preliminary stability of 2-octynoHA was assessed in HBSS pH 7.4 supplemented with HEPES 15 mM and compared to stability of the molecule in ultra-pure water.
Both solutions of 2-octynoHA were prepared to a final concentration of 0.5 mg/mL. 2-octynoHA was incubated for ca. 20 min at 37° C. until fully dissolved in the corresponding media. Once solutions were prepared, they were subjected to UHPLC-UV analysis within ca. 1 h while being kept at room temperature. For chromatographic separation and spectrophotometric analysis, 2 μL of each solution were injected. The chromatographic separation was performed on a 10 cm Polar C18 UHPLC column with a mobile phase composed of water, acetonitrile and formic acid 0.1%.
Detection was performed on a diode array detector by monitoring UV absorbance at 200 nm. 2-octynoHA was detected at 200 nm with RT=5.36 min in both solutions.
In order to identify the product of degradation, a solution of 2-octynoHA 10 mM was prepared in phosphate buffer (KH2PO4 200 mM pH 6.8) and left to incubate overnight at 37° C. […] The product of degradation was then extracted with chloroform, the organic phase was collected, dried over Na2SO4 and filtered. The solvent was evaporated, the obtained substance was dissolved in deuterated dimethyl sulfoxide (DMSO-d6) for ^1H NMR analysis.

The next data set has as its system Caco-2 cells. Description: Cytotoxicity in Caco-2 cells (CCK-8). The following applies: 24 h.
Data set [2] has as its system mixture of E. coli strains (wp2 [pKM101] and wp2 uvrA). Briefly: Ames test (Ames MPF Penta 1), E. coli strain mixture. In kind it is cell-based. The following applies: with or without metabolic activation (S9). (In general: In the Ames test, an excess of revertant colonies over the control signals mutagenicity.)
Text: A commercial microplate format test kit (Ames MPF™ Penta 1, Xenometrix, Switzerland) was used for this experiment. […] The mutagenicity of the three hydroxamic acids was investigated in four S. typhimurium strains (TA98, TA100, TA1535, TA1537) and in the mixture of two E. coli strains (wp2 [pKM101] and wp2 uvrA) with and without metabolic activation (S9 fraction) according to the manufacturer's protocol.
Bacteria were exposed to 6 concentrations of the test compounds, solvent control (DMSO) and positive control substances (concentrations listed in Tables I-II below) for 90 min in the medium containing enough histidine for S. typhimurium or tryptophan for E. coli to support cell growth. After that, the cultures media were diluted with pH indicator solution lacking histidine or tryptophan and aliquoted into 48 wells of a 384-well plate. Within 48 hours, media containing cells that reverted to amino acid prototrophy turned yellow as bacteria metabolism reduced the pH of the media. The number of yellow wells containing revertant colonies was counted for each dose of the test compounds and compared to the solvent control.
The next data set concerns bacterial urease. Briefly: Rat caecum content assay (urease inhibitory activity, ammonia production from urea). It is filed as cell-based, bacteria of rat caecum content. The following applies: read-out: IC50, bacterial urease inhibitory activity; rat caecum content with urea, 30 min at 37° C., pH 6.8. As for the experimental part: To evaluate the inhibitory activity of HAs, the inventors first established an in vitro assay using rat caecum content.
The use of caecum content samples for the initial screening of urease inhibitors allowed to rapidly identify stable and membrane permeable inhibitors that cover a broad spectrum of bacterial ureases present in the gastrointestinal tract.
According to the herein established protocol, rat caecum content provided by the ETH Phenomics center was diluted in 200 mM potassium phosphate monobasic buffer pH 6.8 and centrifuged at 100×g to remove large particles. The supernatant with dispersed bacteria was collected, mixed with urea and then incubated with an increasing range of inhibitor concentrations for 30 min at 37° C. with constant shaking. In this setup initial concentrations of bacteria and urea were adjusted to the values that lead to the production of ammonia at a final concentration of approximately 1000 μM. Bacterial urease converts urea to ammonia, which was quantified by an enzymatic assay (Ammonia assay, Randox Laboratories, UK).
The established assay was then used to evaluate the potency of commercially available HAs as well as synthesized HAs of the present disclosure. As most of the tested HAs have low aqueous solubility, cyclodextrins were used to prepare water-soluble formulations of the compounds. In this study, a stock solution of acetohydroxamic acid (AHA) was prepared in DMSO, and stock solutions of octanohydroxamic acid (OHA) and 2-octynohydroxamic acid (2-octynoHA) were prepared by dissolving them in aqueous solutions of 2-hydroxypropyl-p-cyclodextrin (HPβCD) in 1:2 and 1:4 molar ratios, respectively. The obtained mixtures were sonicated and heated at 37° C. until fully dissolved.
Besides 2-octynoHA, the urease inhibitory activity of other unsaturated alkylated HAs consisting of 8 carbons was assessed. These included 2-octenohydroxamic acid (2-octenoHA), 3-octenohydroxamic acid (3-octenoHA), 3-octynohydroxamic acid (3-octynoHA) and 7-octynohydroxamic acid (7-octynoHA). Prior to assessing potency in the rat caecum content assay, stock solutions of 2-octenoHA and 3-octenoHA were prepared using HPβCD solution (1:4 molar ratio of HA to HPβCD), stock solutions of 3-octynoHA and 7-octynoHA were prepared using mixture of 10% DMSO and HPβCD solution. The 7-octynoHA presented a lower potency than unsaturated alkylated HAs having a double/triple bond at positions 2 or 3.

Data set [3] deals with bile-duct ligated (BDL) rat model of hepatic encephalopathy. Briefly: In vivo efficacy in bile-duct ligated (BDL) rats, blood ammonia. The following applies: 30 mg/kg twice a day by gavage in HPβCD solution, dropped from 53±30.31 μmol/L before treatment, n=4. As for the experimental part: Efficacy of 2-octynoHA was evaluated in the bile-duct ligated (BDL) rat model, which is recommended by the International Society for Hepatic Encephalopathy and Nitrogen Metabolism (ISHEN) as an animal model of hepatic encephalopathy (HE) associated with chronic liver cirrhosis. This model is obtained by obstruction of the common bile duct that causes impairment of liver function and thereby development of hyperammonemia and low-grade HE.
In this study, on the DO blood ammonia levels were measured (n=4, 27.25±6.18 μmol/L) using PocketChem™ (Arkray, Japan) after which all rats were subjected to the BDL surgery. Right before surgery all animals were given injection of slow-release buprenorphine (lasting 72 h) between the shoulder blades. Then, animals were anesthetized with isoflurane in O2. Depth of anesthesia was checked by toe-pinching. Further, a midline incision was made (2 cm), and then the common bile duct was isolated of surrounding tissue, tightly ligated twice with silk suture and cut between the 2 ligations. Abdominal incision was closed with Vicryl™ 4-0 for muscle layers; skin was closed with staples and one drop of Vetbond™ tissue glue was applied to secure closing. Animals were then placed on heating pad for recovery. For the first 4 weeks post-surgery, animals were monitored for pain level, extent of jaundice, body weight (BW) and disease scores. […]

For data set [4], the system named is N-Nitrosodiethylamine induced liver disease in rats. Description: In vivo efficacy in N-nitrosodiethylamine (DEN) induced liver disease in rats, blood ammonia. The arrangement: species or system rat. The following applies: 15 mg/kg in HPβCD solution, gavage twice a day from day 3, n=10. On the procedure:
Efficacy of 2-octynoHA was assessed in male Sprague Dawley rats (Beijing Vital River Laboratory Animal Technology Co., Ltd, China) in a model of acute liver disease. The liver damage was induced by reoccurring intraperitoneal injections of N-nitrosodiethylamine (DEN) 60 mg/kg on days 1, 3, 5, and 7.
Four groups of rats were included. The first control group was treated with a solution of HPβCD 270 mg/kg (n=10). The second group was treated with a suspension of rifaximin 30 mg/kg (n=10). The third group was treated with a suspension of rifaximin 60 mg/kg (n=10). The fourth group was treated with 15 mg/kg of 2-octynoHA dissolved in HPβCD solution (1:1 molar ratio of 2-octynoHA to HPβCD) (n=10). All groups received the treatment via gavage twice a day from day 3 to day 8. Blood samples were collected sublingually on days 0, 6 and 8. Blood ammonia level was measured in collected samples using PocketChem™ (Arkray, Japan).

pIC50: −log10 of the molar value.

Experimental for Caco-2 cells: The compounds used were 2-octynoHA, OHA (Tokyo Chemical Industry Co., Ltd.; Japan) and AHA (Sigma-Aldrich, St. Louis, MO) The human colorectal adenocarcinoma cell line Caco-2 was obtained from American Type Culture Collection. The cells were cultured in complete medium containing DMEM (Dulbecco's modified Eagle's medium) high glucose, GlutaMax™, pyruvate (Thermo Fisher Scientific, Waltham, MA) supplemented with 10% fetal bovine serum (Thermo Fisher Scientific, Waltham, MA), 1% penicillin-streptomycin (Thermo Fisher Scientific, Waltham, MA) and 15 mM HEPES (Thermo Fisher Scientific, Waltham, MA). The cells were incubated at 37° C. in a humidified atmosphere with 5% CO2. Caco-2 cells were used in the experiments from passage 50 to 60 and were tested negative for mycoplasma.
The cytotoxicity of HAs was assessed using Cell Counting Kit-8 (CCK-8, Sigma-Aldrich, St. Louis, MO), a colorimetric assay based on tetrazolium salt WST-8 which is reduced by dehydrogenases in cells to an orange-colored formazan. The absorbance of formazan at 450 nm is directly proportional to the number of living cells.
In order to test cytotoxicity of HAs, Caco-2 cells were seeded in a 96-well plate at a density of 5×10^3 cell/well and grown for 1 day. Then, cells were treated with an increasing range of inhibitors' concentrations and incubated for another 24 h at 37° C., 5% CO2. […] After incubation, cells were washed with phosphate buffered saline (Thermo Fisher Scientific, Waltham, MA), treated with DMEM without phenol red (Thermo Fisher Scientific, Waltham, MA) containing CCK-8 reagent and incubated for another 2 h at 37° C. in a humidified atmosphere with 5% CO2. The absorbance of medium at 450 nm was measured using Tecan Infinite M200 PRO plate reader. Caco-2 cell viability was calculated as a percentage of the medium control.

A word on the pIC50: it is the IC50 on a negative log10 scale, so that one unit is a factor of ten. `CCCCCC#CC(=O)NO` [2-octynoHA, N-hydroxyoct-2-ynamide]: the “degradation in solution (UHPLC-UV)” value is “degraded” in data set [1] (0.5 mg/mL in HBSS pH 7.4 with HEPES 15 mM, ca. 20 min at 37° C., analysed within ca. 1 h at room temperature); “No degradation” in data set [1] (0.5 mg/mL in ultra-pure water, ca. 20 min at 37° C., analysed within ca. 1 h at room temperature); “Complete degradation” in data set [1] (10 mM in KH2PO4 200 mM pH 6.8, overnight at 37° C.). In addition, in the data set on Caco-2 cells (10 mM), the “Caco-2 cell viability (percentage of the medium control)” value was “ca. 6%”. In the data set with Caco-2 cells (Caco-2 cells), the “concentration up to which no cytotoxicity was detected” value is on record as “up to 1 mM”. Also, the “mutagenicity (reverse mutations)” value in data set [2] was “not mutagenic up to 1 mM”. The pIC50 in the data set with bacterial urease was about 4.42. Moreover, the “mean blood ammonia level three days after initiating treatment” value in data set [3] was found to be 11 ± 5.68 µmol/L. The “blood ammonia level on day 6” value in data set [4] was 20 ± 9.6 µM.

(Values after patent US20240293344A1, “Unsaturated Hydroxamic Acid Derivatives and Their Use for the Treatment and Prevention of an Ammonia-Associated Disease or Disorder” (Versantis AG, priority 2021, published 2024).)
